Experiments:
Test in all cases: relative viability (nuclei count vs DMSO), 5 days (fraction); higher = more cells survive
[1] = compound: Cn1nnc2c(C(N)=O)ncn2c1=O [Temozolomide] + CC1(C)CCC(c2ccc(Cl)cc2)=C(CN2CCN(c3ccc(C(=O)NS(=O)(=O)c4ccc(N[C@H](CCN5CCOCC5)CSc5ccccc5)c(S(=O)(=O)C(F)(F)F)c4)cc3)CC2)C1 [Navitoclax] (partner 0.5 µM)
Summary of the method: (§1)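 Nuclei were stained with Hoechst during a one-step fixation (final 0.05% Triton X-100, 1% formaldehyde, 1 ug/ml Hoechst) carried out 5 days after dosing, then counted on 4× images. The cells, lung cancer lines in 1536-well plates, had been dosed by pin tool the day after seeding with one drug alone or a fixed anchor-drug dose plus five library-drug doses (not always all listed) in √10 steps. Relative viability is the nuclei count in treated wells divided by that in vehicle wells, and each value is the median of duplicate plates.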

[2] = compound: Cn1nnc2c(C(N)=O)ncn2c1=O [Temozolomide] + CCNC(=O)c1noc(-c2cc(C(C)C)c(O)cc2O)c1-c1ccc(CN2CCOCC2)cc1 [Luminespib] (partner 0.01 µM)
Summary of the method: as §1

Temozolomide + Dasatinib = compound: Cn1nnc2c(C(N)=O)ncn2c1=O [Temozolomide] + Cc1nc(Nc2ncc(C(=O)Nc3c(C)cccc3Cl)s2)cc(N2CCN(CCO)CC2)n1 [Dasatinib] (partner 0.075 µM)
Summary of the method: as §1

Temozolomide + AZD7762 = compound: Cn1nnc2c(C(N)=O)ncn2c1=O [Temozolomide] + NC(=O)Nc1cc(-c2cccc(F)c2)sc1C(=O)N[C@H]1CCCNC1 [AZD7762] (partner 0.2 µM)
Summary of the method: as §1

| Cell Line | relative viability ([1]; first compound 0.2 µM) | relative viability ([1]; first compound 0.6325 µM) | relative viability ([1]; first compound 2 µM) | relative viability ([1]; first compound 6.325 µM) | relative viability ([1]; first compound 20 µM) | relative viability ([2]; first compound 0.2 µM) | relative viability ([2]; first compound 0.6325 µM) | relative viability ([2]; first compound 2 µM) | relative viability ([2]; first compound 6.325 µM) | relative viability ([2]; first compound 20 µM) | relative viability (Temozolomide + Dasatinib; first compound 0.2 µM) | relative viability (Temozolomide + Dasatinib; first compound 0.6325 µM) | relative viability (Temozolomide + Dasatinib; first compound 2 µM) | relative viability (Temozolomide + Dasatinib; first compound 6.325 µM) | relative viability (Temozolomide + Dasatinib; first compound 20 µM) | relative viability (Temozolomide + AZD7762; first compound 0.2 µM) | relative viability (Temozolomide + AZD7762; first compound 0.6325 µM) | relative viability (Temozolomide + AZD7762; first compound 6.325 µM) | relative viability (Temozolomide + AZD7762; first compound 20 µM) | relative viability (Temozolomide + AZD7762; first compound 2 µM) |
| --- | --- | --- | --- | --- | --- | --- | --- | --- | --- | --- | --- | --- | --- | --- | --- | --- | --- | --- | --- | --- |
| LCLC-97TM1 | 0.546 | 0.443 | 0.49 | 0.445 | 0.512 | 0.835 | 0.7 | 0.749 | 0.806 | 0.75 | 0.76 | 0.807 | 0.934 | 0.813 | 0.803 | 0.352 | 0.293 | 0.168 | 0.253 |  |
| LK-2 | 0.756 | 0.874 | 0.851 | 0.475 | 0.35 | 0.177 | 0.186 | 0.199 | 0.163 | 0.187 | 0.266 | 0.323 | 0.384 | 0.246 | 0.27 | 0.444 | 0.372 | 0.254 | 0.271 | 0.404 |
| LOU-NH91 | 0.395 | 0.738 | 0.702 | 0.596 | 0.361 | 0.341 | 0.341 | 0.323 | 0.325 | 0.361 | 0.444 | 0.551 | 0.589 | 0.572 | 0.448 | 0.77 | 0.784 | 0.79 | 0.75 | 0.836 |
| LU99A | 0.894 | 0.781 | 0.733 | 0.713 | 0.746 | 0.265 | 0.312 | 0.288 | 0.23 | 0.225 | 0.589 | 0.489 | 0.6 | 0.524 | 0.548 | 0.377 | 0.355 | 0.421 | 0.43 | 0.353 |
| LXF-289 | 0.98 | 0.91 | 0.946 | 0.937 | 0.847 | 0.712 | 0.782 | 0.722 | 0.729 | 0.659 | 0.27 | 0.228 | 0.192 | 0.18 | 0.252 | 1.12 | 1.08 | 1.06 | 1.07 | 1.08 |
| NCI-H23 | 1.04 | 0.93 | 0.857 | 0.86 | 0.851 | 0.223 | 0.208 | 0.229 | 0.21 | 0.237 | 0.921 | 0.898 | 0.768 | 0.744 | 0.861 | 0.247 | 0.278 | 0.181 | 0.255 | 0.282 |
| NCI-H322M |  | 1.36 | 1.28 | 1.21 | 0.967 |  | 0.935 | 0.968 | 0.786 | 0.712 |  | 0.275 | 0.274 | 0.256 | 0.218 | 0.558 | 0.559 | 0.547 | 0.455 | 0.545 |
| NCI-H441 | 0.692 | 0.628 | 0.926 | 0.542 | 0.789 | 0.333 | 0.515 | 0.331 | 0.306 | 0.368 | 0.656 | 0.621 | 0.682 | 0.608 | 0.724 | 1.27 | 1.12 | 1.13 | 1.13 | 1.04 |
| NCI-H460 | 1.28 | 1.08 | 1.22 | 1.22 | 1.18 | 0.0394 | 0.0362 | 0.0277 | 0.0344 | 0.0293 | 0.525 | 0.547 | 0.556 | 0.417 | 0.486 | 0.694 | 0.643 | 0.611 | 0.619 | 0.694 |
| NCI-H596 | 0.9 | 0.924 | 0.946 | 0.977 | 0.981 | 1.15 | 1.15 | 0.948 | 0.84 | 1.18 | 0.601 | 0.697 | 0.614 | 0.461 | 0.564 | 1.29 | 1.09 | 1.02 | 1.29 | 1.17 |
| NCI-H647 | 1.16 | 1.24 | 1.24 | 0.73 | 0.291 | 0.17 | 0.174 | 0.197 | 0.114 | 0.0944 | 0.206 | 0.22 | 0.303 | 0.117 | 0.111 | 0.674 | 0.549 | 0.205 | 0.145 | 0.392 |
| NCI-H727 | 0.409 | 0.428 | 0.496 | 0.469 | 0.324 | 0.239 | 0.397 | 0.299 | 0.37 | 0.325 | 0.332 | 0.406 | 0.334 | 0.273 | 0.299 |  | 0.521 | 0.606 | 0.412 | 0.512 |
| NCI-H838 | 1.13 | 1.11 | 1.17 | 1.19 | 1.17 | 0.357 | 0.346 | 0.35 | 0.301 | 0.393 | 0.28 | 0.253 | 0.426 | 0.311 | 0.281 | 0.914 | 0.977 | 0.89 | 0.881 | 0.961 |
| NCI-H1355 | 0.837 | 0.927 | 0.964 | 0.927 | 0.913 | 0.814 | 0.726 | 0.764 | 0.684 | 0.641 | 0.713 | 0.732 | 0.828 | 0.699 | 0.818 | 0.736 | 0.743 | 0.729 | 0.751 | 0.716 |
| NCI-H1395 | 1.26 | 1.14 | 1.14 | 1.1 | 1.05 | 0.51 | 0.67 | 0.703 | 0.65 | 0.6 | 0.429 | 0.393 | 0.491 | 0.402 | 0.392 | 0.385 | 0.381 | 0.332 | 0.362 | 0.454 |
| NCI-H1437 | 1.15 | 1.12 | 1.13 | 1.13 | 1.17 | 1.1 | 1.09 | 1.12 | 1.12 | 1.11 | 0.388 | 0.438 | 0.45 | 0.4 | 0.393 | 1.09 | 1.12 | 1.12 | 1.14 | 1.14 |
